Patent US20190187129A1, “CANCER MODELING PLATFORMS AND METHODS OF USING THE SAME” (Wake Forest University Health Sciences, priority 2016, published 2019)
“Also recorded” adds a separate entry of the source.

Experiments:
HT29 cells = test: 3D hyaluronan-based hydrogel construct drug screen, MTS assay; assay type: cell-based; conditions: Homo sapiens
Experimental: Polydimethylsiloxane, or PDMS, was used to coat the bottom of the wells. Cells were embedded within the hyaluronan-based hydrogel and were given 5 days to acclimate to their three-dimensional environment and on day 5 were administered different anticancer drug solutions (FIG. 7, panel A). […] At 100 μM concentrations of Regorafenib and Sorafenib, cellular viability remained below 25% that of the control for all four of the colorectal cancer cell lines utilized. The only exception to this was when 100 μM Regorafenib was administered to CACO2 cells and the percent relative cell viability rose to approximately 48%. […] At a 100 μM concentration, Dabrafenib had greater efficacy in targeting the HCT116 and SW480 cell lines, which had relative cellular viability values of 38% and 43%, as opposed to the HT29 and CACO2 cell lines, which had higher cell viability values of 93% and 75%. 100 μM concentrations of Trametinib produced relative cellular viability results that fell within a narrow range for the four colorectal cell lines with values of 54% for SW480 cells and 74% for HT29 cells.
Well Coating with PDMS and Cell Isolation: Polydimethylsiloxane, or PDMS, (DOW Corning, North Carolina, USA) was used at a 1:10 curing agent ratio to coat the bottom of the 96-well plates and the plates were then placed in a 80° C. oven for at least one hour. Cells were passaged in the same methods previously mentioned (A) with the desire to place 10 μL 3D hyaluronan-based hydrogel constructs containing 100,000 cells each ([…]) into the wells of a 96-wells plate for all four colorectal cancer cell types. Depending on the cell count, a desired number of cells were isolated in new 15 mL centrifuge tubes as cell-media solution and underwent centrifugation.
Hydrogel Components of the Single-Cell Type Constructs: The hyaluronic acid-based hydrogel (ESI BIO, California, USA) was produced using a mixture of three components: Heprasil, Gelin-S, and Extralink PEGDA 2-ARM Acrylate crosslinker. These components were mixed in a 2:2:1 ratio by volume. 0.1% Irgacure photoinitiator (Sigma-Aldrich, Missouri, USA) was added to each of the three components prior to their mixture and the three components were placed in a 37° C. incubator for a ˜30 minutes to solubilize.
Forming Organoid Constructs: Once solubilized, the media was aspirated from the 15 mL centrifuge tube (post-centrifugation) and the cells were isolated as a pellet. The hydrogel components were added directly into the centrifuge tube containing the cells and the cells were carefully resuspended in the mixture. 10 μL of the gel-cell solution was placed in the center of the wells on the PDMS coating. This was continued for all wells containing cells and was repeated for each cell type. After this point, the gel can be exposed to UV light from a BlueWave 200 spot light (Dymax, Connecticut, USA) to solidify the hydrogel, or one can wait ˜30 minutes for the gel to form on its own. DMEM-10 media was then placed in the wells and the constructs were incubated for 5 days.
Anticancer Drug Screening and Cell Viability: The same five anticancer drugs were added on Day 5 and the cell viability assay occurred on Day 7.

[1] = system: HCT116-CACO2 ringed constructs; test: Ringed organoid drug screening, live-dead stain; assay type: cell-based; conditions: for % dead: % live ratio: drug day 5, stain day 7; for cell type targeted in ringed construct (live-dead images): inner HCT116 versus outer CACO2, day 7
Experimental: Polydimethylsiloxane, or PDMS, was again used to coat the bottom of the wells. HCT116 cells were embedded within hyaluronan hydrogel and constructs were created on the PDMS surface. CACO2 cells that were also embedded within hyaluronan gel were used to create the outer ring around the HCT116 inner-ring construct (FIG. 9, panel A).
A live-dead stain was carried out on the ringed-constructs on day 7 and imaged on an Axiovert microscope (FIG. 9, panel B). The imaging software, MATLAB, was used to generate a % dead: % live ratio (or % red (medium grey in black and white images): % green (light grey in black and white images)) for the ringed-constructs. The values were then graphed showing the ratios for each of the concentrations of Regorafenib and 5-FU and against the control, untreated ratio (FIG. 9, panel C). At 100 μM, Regorafenib and 5-FU both have % dead: % live ratios of 0.98. This means that approximately half of the HCT116 and CACO2 cells are alive and half have been targeted by the anticancer drugs. When analyzing the relative cellular viability when the 1 μM and 10 μM concentrations of Regorafenib and 5-FU were administered, the % dead: % live ratios are much greater for the 5-FU solutions than for the Regorafenib solutions. At 1 μM, the % dead: % live ratio is 0.95 for 5-FU as opposed to 0.48 for Regorafenib, and at 10 μM, the % dead: % live ratio is 0.78 for 5-FU as opposed to 0.08 for Regorafenib. The % dead: % live ratios for the three concentrations of Regorafenib and 5-FU were substantially higher than the control % dead: % live ratio value of only 0.03.
Hydrogel Components of the Ringed Organoid Constructs: The hyaluronic acid-based hydrogel used in making the ringed organoids was a mixture of four components: Heprasil, Gelin-S, and PEGDA 2-ARM Acrylate crosslinker (Extralink), and Alkyne-PEG-Alkyne 2-ARM crosslinker (ESI BIO, California, USA). These components were mixed in a 4:4:1:1 ratio by volume. 0.1% Irgacure photoinitiator was added to each of the four components prior to their mixture and the […] were placed in a 37° C. incubator for a ˜30 minutes to solubilize. HCT116 and CACO2 cells were isolated in the passaging method previously mentioned and PDMS was used to coat the bottom of the 96-well plates.
Forming Ringed-Organoid Constructs: The four components of the hydrogel were added to the 15 mL centrifuge tube containing the HCT116 cell pellet and the cells were resuspended within the mixture. 10 μL of the HCT116 containing hydrogel were placed in the center of the wells and left untouched with aluminum foil covering the 96-well plates for ˜35 minutes. During this time, the PEGDA 2-ARM Acrylate will crosslink the gel, while the UV-sensitive 2-ARM Alkyne-PEG-Alkyne will remain uncrosslinked.
While waiting for the PEGDA to crosslink, add the four hydrogel components to the 15 mL centrifuge tube containing the isolated CACO2 cells and resuspend the cells within the gel. Remove the aluminum foil wrapping on the 96-well plate and inspect the construct to see if they have solidified yet. If so, take 25 μL of the CACO2-embedded-hydrogel and carefully place in the area around the HCT116 construct. Use the pipette tip to physically move the CACO2 gel around the construct on all sides. Use UV light from BlueWave 200 spot light to crosslink both gels together to form a fused, ringed-construct. Add DMEM-10 media to fill up the wells.
Anticancer Drug Screening: On day 5, 1 μM, 10 μM, and 100 μM drug solutions of 5-FU were added to ringed constructs and 1 μM, 10 μM, and 100 μM drug solutions of Regorafenib were added to separate ringed constructs. Three duplicates were generated for each of the drug concentrations and a no-drug control was maintained as well.
Live-Dead Staining and Microscopy: On day 7, the ringed-constructs underwent a Live-Dead stain and the construct were imaged on an Axiovert 200M 487-1 microscope (Carl Zeiss AG, Oberkochen, Germany). […]

| Structure (SMILES) | viability at 10000 µM (HT29 cells; HT-29, 10 mM, HT29, read-out: percent relative cell viability (MTS, relative to control)) | % dead: % live ratio ([1]; 1 μM) | % dead: % live ratio ([1]; 10 μM) | % dead: % live ratio ([1]; 100 μM) | cell type targeted in ringed construct (live-dead images) [1] | viability at 100 µM (HT29 cells; HT-29, 100 μM, HT29, drug day 5, assay day 7, read-out: percent relative cell viability (MTS, relative to control)) |
| --- | --- | --- | --- | --- | --- | --- |
| O=c1[nH]cc(F)c(=O)[nH]1 [5-FU, 5-Fluorouracil] | 50% | 0.95 | 0.78 | 0.98 | targeting both cell types to similar degrees; also recorded: universal cell death of both HCT116 and CACO2 | – |
| CNC(=O)c1cc(Oc2ccc(NC(=O)Nc3ccc(Cl)c(C(F)(F)F)c3)c(F)c2)ccn1 [Regorafenib] | – | 0.48 | 0.08 | 0.98 | inner HCT116 cells were affected by Regorafenib to a greater extent than the CACO2 cells; also recorded: targeted cell death of HCT116 | < 25% |
